Counter-ions that a name gives are not always drawn. Like-named read-outs stand apart in the source and are kept apart here.
Assays:
wild-type PAH [1] = target: T1, wild-type PAH (Homo sapiens (Human), UniProt P00439); experiment: Thermal stability shift assay (DSF); assay type: binding; conditions: compound 30 μM (BH4 43 μM); for ΔTm1 WT PAH: shift of transition midpoint 1 vs NCC; for ΔTm2 WT PAH: shift of transition midpoint 2 vs NCC
From the text: (§1) 1. Thermal Stability Shift Assay
(§2) Thórólfsson et al. (Biochemistry, 2002, 41(24), 7573-7585) describe that the thermal denaturation of hPAH occurs in three stages: (i) unfolding of the four regulatory domains, which is responsible for the low-temperature calorimetric transition (ii) unfolding of two (out of the four) catalytic domains, which is responsible for the high-temperature transition; and (iii) irreversible protein denaturation. The most important domain for stabilization is the regulatory domain.
(§3) Thus, to test the compound effect on thermal stability of the target protein a thermal stability shift assay (also called differential scanning fluorimetry (DSF)) was performed [Niesen F. H. et al., Nat Protoc., 2007, 2(9), 2212-2221; Gersting S. W. et al., Human Molecular Genetics, 2010, 19(10), 2039-2049; and Gersting S. W. et al., J. Biol Chem. 2010, 285(40), 30686-30697]. DSF monitors thermal unfolding of proteins in the presence of a fluorescent dye (SYPRO Orange; λexc=465 nm, λem=610 nm) and was performed using a real-time PCR instrument (Applied BioSystems 7000HT Fast Real-Time PCR System). Compounds that increase the midpoints of thermal denaturation (Tm) are considered to bind and stabilize the protein.
(§4) In brief, purified wild-type or Arg261Gln (which is the most frequent mutation responsive to BH4) PAH proteins (diluted in 20 mM NaHEPES, pH 7.0 and 200 mM NaCl, 2 mM DTT to 2 mg/ml) were used at a final concentration of 0.2 mg/ml protein per sample. The compounds were tested at a final concentration of 30 μM. A no compound control (NCC) was used according to the compound solvent at a final concentration of 2% (H2O, DMSO, ethanol, methanol). As a positive control we used the natural cofactor 6R-L-erythro-5,6,7,8-tetrahydrobiopterin (BH4, CAS 69056-38-8) stabilized in 100 mM dithiothreitol (DTT), in a final concentration of 43 μM. To exclude unspecific effects of the compound to the dye, a no protein control (NPC) was added (buffer, compound, dye). The measurement was performed in duplicates and samples were denatured by scanning a temperature range of 20 to 75° C. at a scan rate of 0.5° C./min.
(§5) The data was normalized and the respective Tm values were calculated by bi-phasic equation to determine temperatures at which half denaturation occurred (Software GraphPadPrism). To identify compound specific effects on the thermal stability of the target protein, the reference Tm (NCC) was used to calculate the temperature shift between compound treated and not treated protein (Tm−TmNCC), from duplicates, to provide transition midpoints shifts (ΔTm1 and ΔTm2). Tm1 and Tm2 are the two different transition mid point of the unfolding process of the protein as the tetrameric protein PAH unfolds in two steps due to its domains. A shift in Tm1 of 2° C. reflects a relevant increase in thermal stability on the regulatory domain and, thus, is considered a positive result.

wild-type PAH [2] = target: T1, wild-type PAH; experiment: Isothermal titration calorimetry; assay type: binding; conditions: ITC; for Kd / N (stoichiometry) / ΔG / ΔH / −TΔS: 25° C., WT PAH
From the text: 4. Isothermal Titration Calorimetry
Isothermal titration calorimetry (ITC) is a quantitative physical technique used to determine binding affinities of small molecules to proteins or other larger molecules [Freyer M. W. and Lewis E. A., Methods in Cell Biology, 2008, vol. 4, Chapter 4, pages 79-113]. The measurement detects changes of heat generated or absorbed when molecules interact, generate binding kinetics and thermodynamic profile of the molecular interaction. The following parameters are determined: KD (equilibrium dissociation constant), N (stoichiometry of the interaction (mol ligand/mol complex)), ΔH (enthalpy change), ΔG (Gibbs energy), T (temperature) and ΔS (entropy change).
ITC experiments were performed at 25° C. using a MicroCal PEAQ-ITC microcalorimeter (Malvern). PAH proteins were prepared in a HEPES buffer (HEPES 20 mM Hepes, 0.2M NaCl, 1 mM DTT, pH 7.0) containing 5% DMSO, in order to match the final DMSO concentration of the compounds dilutions. The protein concentration used (30 μM) was determined using ultraviolet (UV) absorbance at 280 nm. The compounds ([…]) were prepared using the exact same buffer. Twelve injections of 3 μL of compound/ligand were titrated into the sample cell (containing the protein) over 31 min with a stirring speed of 750 rpm. Data was baseline adjusted by subtracting the background obtained from equivalent injections of compound into the buffer solution. The titration curves were analyzed using MicroCal PEAQ-ITC analytics software (version 1.1.0.1262, Malvern Instruments Ltd.) using a model that assumes a set of identical binding sites where the total heat of the solution is calculated as:
[formula] where n is the number of binding sites, Mt is the total protein concentration in the cell, ΔH is the molar heat of ligand binding, Xt is the total concentration of ligand, and K the binding constant (K=1/KD). The heat released per injection (i), ΔQ(i), is calculated following the equation below, which compensates for the volume that is added in each injection (ΔVi). V0 is the initial volume in the cell.
The parameters, n, K, and ΔH are determined using non-linear square fitting using the Levenberg-Marquardt algorithm.

Arg261Gln (R261Q) PAH [3] = target: T2, Arg261Gln (R261Q) PAH (Homo sapiens (Human), UniProt P00439, R261Q); experiment: Thermal stability shift assay (DSF); assay type: binding; conditions: compound 30 μM (BH4 43 μM); for ΔTm1 R261Q PAH: shift of transition midpoint 1 vs NCC; for ΔTm2 R261Q PAH: shift of transition midpoint 2 vs NCC
From the text: as §1, §2, §3, §4, §5

Arg261Gln (R261Q) PAH [4] = target: T2, Arg261Gln (R261Q) PAH; experiment: Phenylalanine hydroxylase residual protein amount (dot blot, COS-7 lysates); assay type: cell-based; conditions: COS-7 cells, compound 10 μM (sepiapterin 5 μM), read-out: PAH protein level (immune blot signal) R261Q PAH Mean
Experimental: (§6) 3. Phenylalanine Hydroxylase Residual Protein Amount
(§7) The analysis of the residual PAH protein amount was based on the method described in Gersting S. W. et al., Human Molecular Genetics, 2010, 19(10), 2039-2049 with modifications.
(§8) Detection of the residual PAH protein amount was performed as a dot blot using the lysates obtained from the cell culture where transiently transfected COS-7 cells (with wild-type PAH or PAH variant) were exposed for 48 h to compounds. The experiment was carried out from the same samples as used for measuring enzyme activities.
(§9) 2 μl of the lysate were dropped onto the nitrocellulose membrane. The membrane was allowed to air dry at room temperature for 30 min followed by 40 min blocking in 5% milk in TBS-Tween (room temperature). The membrane was incubated with the mouse monoclonal primary antibody specific for PAH (Millipore, Cat. No. MAB5278, 1:1000 dilution in 5% milk in TBS-Tween) for overnight at 4° C. Next, the membrane was washed (3×10 min in TBS-Tween) and incubated with the secondary HRP-conjugated antibody (anti-mouse antibody; Santa Cruz Biotechnology, Inc., Cat. No. sc-2005; 1:1000 dilution in 5% milk in TBS-Tween) followed by thorough washing in TBS-Tween (3×10 min) and distilled water (1×10 min). Blots were visualized with Pierce™ ECL substrate (ThermoFisher Scientific, Cat No. 32106) and chemiluminescence was monitored with a DIANA III Imaging system or ChemiDoc™ MP Imaging System (BioRad). To analyze the compound effect on the PAH protein amount densitometry analysis was performed using ImageJ Software.
(§10) The effect of compound on PAH protein amount was calculated from triplicates. As for determination of the enzyme activity the background of the not transfected cells (NT) was subtracted from the transfected cells (NCC or compound treated). In the next step delta of the NCC versus compound treated cells was calculated. Residual protein amount greater than 100% represents an increase in the stability of the enzyme with respect to NCC.

wild-type PAH [5] = target: T1, wild-type PAH; experiment: as above; assay type: cell-based; conditions: COS-7 cells, compound 10 μM (sepiapterin 5 μM), read-out: PAH protein level (immune blot signal) WT PAH Mean
Experimental: as §6, §7, §8, §9, §10

T2 sequence (P00439 whole entry R261Q): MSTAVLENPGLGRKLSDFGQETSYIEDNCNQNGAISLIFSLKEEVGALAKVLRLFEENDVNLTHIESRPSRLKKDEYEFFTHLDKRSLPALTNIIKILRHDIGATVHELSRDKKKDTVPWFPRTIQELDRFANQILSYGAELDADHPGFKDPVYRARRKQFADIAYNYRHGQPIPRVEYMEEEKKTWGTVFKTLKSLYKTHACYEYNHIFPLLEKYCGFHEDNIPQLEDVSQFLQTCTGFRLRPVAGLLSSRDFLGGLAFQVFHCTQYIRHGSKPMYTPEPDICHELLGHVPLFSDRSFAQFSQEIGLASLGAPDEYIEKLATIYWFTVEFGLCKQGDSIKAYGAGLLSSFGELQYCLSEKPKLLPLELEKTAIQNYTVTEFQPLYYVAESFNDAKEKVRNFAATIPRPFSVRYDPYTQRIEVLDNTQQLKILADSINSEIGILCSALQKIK
T1 sequence (P00439 whole entry): as the sequence (P00439 whole entry R261Q) above, with Q261R counted along it

Compound | ΔTm1 WT PAH (wild-type PAH [1]) [°C] | ΔTm1 R261Q PAH (Arg261Gln (R261Q) PAH [3]) [°C] | ΔTm2 R261Q PAH (Arg261Gln (R261Q) PAH [3]) [°C] | ΔTm2 WT PAH (wild-type PAH [1]) [°C] | PAH protein level (% of control) at 10 µM (Arg261Gln (R261Q) PAH [4]; 48 h) [%] | PAH protein level (% of control) at 10 µM (wild-type PAH [5]; 48 h) [%] | further results
C=CCn1c(=O)n([C@@H]2O[C@H](CO)C(O)C2O)c2nc(N)[nH]c(=O)c21 (stereo in doubt) [Loxoribine, 2-amino-9-[(2R,3R,4S,5R)-3,4-dihydroxy-5-(hydroxymethyl)oxolan-2-yl]-7-prop-2-enyl-3H-purine-6,8-dione] | 3.57 |  |  |  |  |  | 
C[C@H](O)[C@H](O)[C@H]1CNc2[nH]c(N)nc(=O)c2N1 [BH4, 6R-L-erythro-5,6,7,8-tetrahydrobiopterin] | 0.20 | 2.54 | 12.17 | 1.88 |  |  | Kd (wild-type PAH [2]): 40.7 ± 14.1 µM; N (stoichiometry) (wild-type PAH [2]): 0.936 ± 0.3 sites; ΔG (wild-type PAH [2]): -6 kcal/mol; ΔH (wild-type PAH [2]): -17.9 ± 7.91 kcal/mol; −TΔS (wild-type PAH [2]): 11.9 kcal/mol
CCc1cccc2cc(C(O)CNC(C)(C)C)oc12 (centres unmarked) [Bufuralol HCl, 2-(tert-butylamino)-1-(7-ethyl-1-benzofuran-2-yl)ethan-1-ol] | 1.62 | 2.24 |  | −0.09 |  |  | 
CN1CCc2cc3c(cc2C1O)OCO3 (centres unmarked) [Hydrastinine HCl, 6-methyl-7,8-dihydro-5H-[1,3]dioxolo[4,5-g]isoquinolin-5-ol] | −0.49 | 2.46 | 0.04 | 6.10 | 141 | 164 | Kd (wild-type PAH [2]): 2.99 ± 3.2 µM; N (stoichiometry) (wild-type PAH [2]): 1.310 ± 0.2 sites; ΔG (wild-type PAH [2]): -7.55 kcal/mol; ΔH (wild-type PAH [2]): 2.29 ± 0.55 kcal/mol; −TΔS (wild-type PAH [2]): -9.82 kcal/mol; Kd (in words) (wild-type PAH [2]; recombinant PAH): low micromolar range
Nc1cc(N2CCCCC2)nc(N)[n+]1[O-] [Minoxidil, 2,6-diamino-4-(piperidin-1-yl)pyrimidine 1-oxide] |  |  |  |  | 96.1 | 127 | 
CCC[S+]([O-])c1ccc2[nH]c(NC(=O)OC)nc2c1 (centres unmarked) [Ricobendazole, methyl [5-(propane-1-sulfinyl)-1H-benzoimidazol-2-yl]-carbamate] | −0.48 | 2.19 | 3.39 | 2.57 | 104 | 154 | 
CCc1cccc2cc(C(O)CNC(C)(C)C)oc12 (centres unmarked) [S-Bufuralol HCl, 2-(tert-butylamino)-1-(7-ethyl-1-benzofuran-2-yl)ethan-1-ol] | 1.05 | 3.73 | 0.92 | 0.24 |  |  | 
CC(C)[C@H](N)C(=O)OCCOCn1cnc2c(=O)[nH]c(N)nc21 [Valacyclovir HCl, 2-[(2-amino-6-oxo-3H-purin-9-yl)methoxy]ethyl (2S)-2-amino-3-methylbutanoate] |  |  |  |  | 104 | 146 | 
CC(C)[C@H](N)C(=O)OCC(CO)OCn1cnc2c(=O)[nH]c(N)nc21 (stereo partly drawn) [Valganciclovir HCl, [2-[(2-amino-6-oxo-3H-purin-9-yl)methoxy]-3-hydroxypropyl] (2S)-2-amino-3-methylbutanoate] |  |  |  |  |  |  | PAH protein level (% of control) at 10 µM (Arg261Gln (R261Q) PAH [4]; COS-7, 48 h): 141%; PAH protein level (% of control) at 10 µM (wild-type PAH [5]; COS-7, 48 h): 138%

From patent US12257253B2, “Triamterene or nolatrexed for use in the treatment of phenylketonuria” (SOM INNOVATION BIOTECH, S.A., priority 2019, dated 2025)
